Results published in ChEMBL document CHEMBL1201862, “PubChem BioAssay data set” (2004).
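All cell lines were grown in 96-well plates and treated with compound for 48 hours. GI50 is the concentration that inhibits growth by half.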 Activity calls are given as the source filed them. No stated cut-off is given here; in the data, active = GI50 up to about 1.1 µM and inactive = higher.

Tests used:
Assay in all cases: NCI-60 cell line screen, 48 h
[1] = test system: 786-0
[2] = test system: A498
[3] = test system: A549
[4] = test system: ACHN
[5] = test system: CAKI-1
[6] = test system: CCRF-CEM
[7] = test system: COLO 205
[8] = test system: DU-145
[9] = test system: EKVX
[10] = test system: HCC 2998
[11] = test system: HCT-116
[12] = test system: HCT-15
[13] = test system: HL-60
[14] = test system: HOP-62
[15] = test system: HOP-92
[16] = test system: HT-29
[17] = test system: Hs-578T
[18] = test system: IGROV-1
[19] = test system: K562
[20] = test system: KM12
[21] = test system: LOX IMVI
[22] = test system: M14
[23] = test system: MCF7
[24] = test system: MDA-MB-231
[25] = test system: MDA-MB-435
[26] = test system: MDA-N
[27] = test system: MOLT-4
[28] = test system: Malme-3M
[29] = test system: NCI-H226
[30] = test system: NCI-H23
[31] = test system: NCI-H460
[32] = test system: NCI-H522
[33] = test system: NCI/ADR-RES
[34] = test system: OVCAR-3
[35] = test system: OVCAR-4
[36] = test system: OVCAR-5
[37] = test system: OVCAR-8
[38] = test system: PC-3
[39] = test system: RPMI-8226
[40] = test system: RXF 393
[41] = test system: SF-268
[42] = test system: SF-295
[43] = test system: SF-539
[44] = test system: SK-MEL-28
[45] = test system: SK-MEL-2
[46] = test system: SK-MEL-5
[47] = test system: SK-OV-3
[48] = test system: SN12C
[49] = test system: SNB-19
[50] = test system: SNB-75
[51] = test system: SR
[52] = test system: SW-620
[53] = test system: T47D
[54] = test system: TK-10
[55] = test system: U-251
[56] = test system: UACC-257
[57] = test system: UO-31
[58] = test system: UACC-62

Measured: GI50

CCOC(=O)C(=CNc1ccc(N(C2=NCC(C)S2)c2ccc(F)c(Cl)c2)cc1)C(=O)OCC (stereo not drawn)
18.8 µM: [12]
inactive: [1] 16.2 µM | [2] 21.9 µM | [3] 27 µM | [4] 18.5 µM | [5] 39.2 µM | [6] 7.93 µM | [7] 17.8 µM | [8] 17.6 µM | [9] 19.5 µM | [10] 15.2 µM | [11] 16 µM | [13] 24.7 µM | [14] 21.1 µM | [15] 18.1 µM | [16] 18.1 µM | [17] 22.8 µM | [18] 20.5 µM | [19] 44.1 µM | [20] 18.7 µM | [21] 16.8 µM | [22] 18.9 µM | [23] 12.8 µM | [24] 14.5 µM | [25] 24.1 µM | [26] 21.2 µM | [27] 19.1 µM | [28] 20.8 µM | [29] 18.1 µM | [30] 17.5 µM | [31] 23.6 µM | [32] 15.7 µM | [33] 17.1 µM | [34] 20.9 µM | [35] 24.8 µM | [36] 19.6 µM | [37] 18.8 µM | [38] 22.4 µM | [39] 21.3 µM | [40] 6.05 µM | [41] 22.9 µM | [42] 25.4 µM | [43] 25.6 µM | [44] 18.7 µM | [45] 20.4 µM | [46] 18.7 µM | [47] 21.9 µM | [48] 17.9 µM | [49] 21.8 µM | [50] 20.4 µM | [51] 21.8 µM | [52] 20.8 µM | [53] 13.9 µM | [54] 21.8 µM | [55] 20.8 µM | [56] 17.1 µM | [57] 18.1 µM

c1ccc2c(c1)CCN2CCN1CCc2ccccc21
inactive: [1] > 10 µM | [3] > 10 µM | [4] > 10 µM | [5] > 10 µM | [6] > 10 µM | [7] > 10 µM | [8] > 10 µM | [9] > 10 µM | [10] > 10 µM | [11] > 10 µM | [13] > 10 µM | [14] > 10 µM | [15] > 10 µM | [16] > 10 µM | [17] > 10 µM | [18] > 10 µM | [19] > 10 µM | [20] > 10 µM | [21] > 10 µM | [22] > 10 µM | [23] > 10 µM | [24] > 10 µM | [25] > 10 µM | [26] > 10 µM | [27] > 10 µM | [29] > 10 µM | [30] > 10 µM | [31] > 10 µM | [32] > 10 µM | [33] > 10 µM | [34] > 10 µM | [35] > 10 µM | [36] > 10 µM | [37] > 10 µM | [38] > 10 µM | [39] > 10 µM | [40] > 10 µM | [41] > 10 µM | [42] > 10 µM | [43] > 10 µM | [44] > 10 µM | [45] > 10 µM | [46] > 10 µM | [47] > 10 µM | [48] > 10 µM | [49] > 10 µM | [50] > 10 µM | [51] > 10 µM | [52] > 10 µM | [53] > 10 µM | [54] > 10 µM | [55] > 10 µM | [56] > 10 µM | [58] > 10 µM | [57] > 10 µM
> 10 µM: [12]
